Reference: a melting point compilation (Tetko et al.)

Structure (SMILES) | melting point [°C]
COCc1cc([N+](=O)[O-])ccc1Cl | 43 to 45
CCC(=CC(=O)O)c1cccc(Cl)c1 | 79 to 81
O=C1C=CC(=O)N1c1cccc([N+](=O)[O-])c1 | 129 to 131
Cc1cc(N)ccc1C(N)=O | 154 to 156
NCCC(=O)N1CCN(c2ncccn2)CC1 | 87 to 89
Cc1ccc2c(CC(=O)O)cc(=O)oc2c1 | 209 to 211
COCCOc1cc(C(=O)O)nc2ccccc12 | 179 to 181
O=C(O)CCNS(=O)(=O)c1ccc([N+](=O)[O-])cc1 | 150 to 152
Cc1cc(C)c([N+](=O)[O-])c(C)c1C(=O)O | 169 to 171
Cc1cc(O)cc(C(=O)O)c1 | 205 to 207
Nc1nnc(SCc2ccccc2)[nH]1 | 99 to 101
O=c1c2ccccc2c(-c2nnc(S)o2)nn1Cc1ccccc1 | 238 to 242
O=C1CCC(=O)N1CCBr | 53 to 55
CSc1ccccc1NC(=O)C(C)Cl (configuration not stated) | 59 to 61
CC(C)C(O)c1nccn1C (configuration not stated) | 80 to 82
CC(C)Cn1cnnc1C1CCCN1 (configuration not stated) | 54 to 56
Cc1ccc(N)cc1-n1cnnn1 | 113 to 115
CCOC(=O)C1CCC(=O)NC1 (configuration not stated) | 66 to 68
CC(C)NC(=O)c1ccc(N)cc1 | 149 to 151

Structure (SMILES) | melting point [°C]
Cc1cccc2c1OCC2=O | 83 to 85
COc1ccccc1-n1cc(S(N)(=O)=O)cn1 | 143 to 145
O=C(O)c1cc(Br)ccc1I | 120 to 122
CCc1c(C(=O)Nc2cc(S(=O)(=O)N(CC)CC)ccc2O)[nH]c(C)c1C(C)=O | 229 to 231
CC(C)c1cc(C(=O)O)nn1C | 87 to 89
NN1CCCC1=O | 47 to 49
CN1C(=CC=O)C(C)(C)c2ccccc21 | 93 to 95
CC1CN(C(=O)CC#N)CC(C)O1 (configuration not stated) | 125 to 127
Nc1cc(I)ccc1O | 135 to 137
Clc1cncc(-n2cncn2)n1 | 109 to 111
CC(C)c1ccc(-c2nn(-c3ccccc3)cc2C(=O)O)cc1 | 222 to 224
CC1CCCC(NC(=O)OC(C)(C)C)(C(=O)O)C1 (configuration not stated) | 149 to 151
O=C(O)c1cc(S(=O)(=O)NCCCN2CCCC2=O)ccc1Cl | 98 to 100
NC(=O)NCc1ccc([N+](=O)[O-])cc1 | 199 to 201
Cc1cc(C#N)ccc1-n1cncn1 | 139 to 141
CN(C)C(=O)c1ccc(Cl)c(N)c1 | 76 to 78
O=S(=O)(Cl)c1cc(Br)c(F)cc1F | 34 to 36
CC(C)Oc1ccc(C(=O)NN)cc1 | 117 to 119
O=C(Nc1ccccc1)c1cccc(O)c1 | 151 to 153

Structure (SMILES) | melting point [°C]
CNS(=O)(=O)c1cc(Br)cnc1N | 179 to 181
O=C(O)c1ccc2c(c1)S(=O)(=O)N(CC1CCCO1)C2=O (configuration not stated) | 159 to 161
O=C(O)c1cc(S(=O)(=O)F)cs1 | 191 to 193
OCc1cc(Br)cs1 | 30 to 32
CCN1N=C(C(=O)O)CC1=O | 256 to 258
N#Cc1ccc(=O)[nH]c1 | 253 to 255
CC1(O)C(=O)Nc2ccccc21 (configuration not stated) | 156 to 158
CNC(=O)COc1cccc(CC(=O)O)c1 | 128 to 130
O=C1CCOc2cc3c(cc21)OCO3 | 96 to 98
O=C(CCl)NC1CCCC1 | 73 to 75
Cc1cc(Oc2ncccc2C#N)ccc1N | 158 to 160
COc1ccc(C(=O)C2CCOCC2)cc1 | 103 to 105
CC1CCC2C(=O)N(C)C(=O)C2C1C(=O)O (configuration not stated) | 151 to 153
Cc1oc2[nH]c(=O)n(-c3ccccc3)c(=O)c2c1C(=O)O | 289 to 291
CCC(=O)N(C)c1ccccc1C(=O)O | 193 to 195
Cc1nn(C)c(C)c1NC(=O)CCl | 107 to 109
CNc1ncc(C(F)(F)F)cc1Cl | 44 to 46
O=C(O)c1cn(-c2ccccc2)nc1-c1ccc(Cl)cc1 | 246 to 248
Cc1sc2ncnc(SCC(=O)O)c2c1C | 215 to 217
